The source of these data is patent US20240041977A1, “ANNEXIN A1 N-TERMINAL PEPTIDE FORMULATIONS AND METHODS” (ResoTher Pharma A/S, priority 2020, published 2024).

The data set is described as follows: Visual appearance of solution. In kind it is physicochemical. As to the method:
The remainder of the peptide suspension was diluted to an assumed concentration of 5 mg/mL and 4*1 mL samples were adjusted to pH 2, 4, 6 and 8, (see FIG. 2). All 4 vials continued to be opaque indicating limited solubility.
Approximately 16 mg/mL AnxA1 was added to milliQ® water. The resulting pH was 7.5. pH was adjusted to pH 10 in one sample using 0.1 M NaOH and to pH 2 using 0.1 M HCl in another sample, according to table 3. The appearance of the solution was noted. At pH≥7.4 the solution was clear. At pH≤7.1>2.6 solutions where unclear. At pH≤2.6 the solution was again clear. Data are summarized the Table 3, see also FIG. 5.
AnxA1 samples are dissolved in Milli Q® water or 5% mannitol in Milli Q® water to approximately 18 mg/mL and pH was adjusted using 1.0 M HCl and NaOH. After dissolution visual appearance was noted and a photograph was taken, see FIG. 6 and Table 4, and a sample was cleared by centrifugation and the concentration determined in the supernatant using UV-VIS spectroscopy.
Isotonic samples containing 1.5-1.6 mg/mL AnxA1 and a tonicity provider (isotonicity modifier) was prepared around neutral pH according to the specification in table 5. […] The samples were subjected to the ThT assay previously described, where a higher lag-time was observed when using sucrose and mannitol as tonicity providers compared to using trehalose and glucose. The data presented in Table 5 is illustrated graphically in FIG. 7.

Ends that are not written are not given here.

For the substance “AMVSEFLKQAWFIENEEQEYVQTLKSSKGGPGSAVSPYPTFNPSSDV-NH2 [AnxA1]”, the Visual appearance result is “Clear” (AnxA1 1.5 mg/mL, glucose 5 wt.%, pH 7.1); “Clear” (AnxA1 1.6 mg/mL, mannitol 5 wt.%, pH 6.7); “Clear” (AnxA1 1.6 mg/mL, sucrose 10 wt.%, pH 7.2); “Clear” (AnxA1 1.6 mg/mL, trehalose 10 wt.%, pH 7.2); “clear solutions” (all isotonic samples, 1.5-1.6 mg/mL AnxA1 and a tonicity provider, around neutral pH); “unclear and or viscous solution” (approximately 18 mg/mL AnxA1, pH 2, 4 and 6, with and without 5% mannitol in Milli Q water). For the same substance, the Visual appearance entry (approximately 18 mg/mL AnxA1, pH 8 and 10, with and without 5% mannitol in Milli Q water) is listed as “clear solution”. Also, the “Description (visual appearance)” value is, setting by setting: (approximately 16 mg/mL AnxA1 in milliQ water, pH 2.6-2.0) “Clear solution”; (approximately 16 mg/mL AnxA1 in milliQ water, pH 3.8-3.1) “Starts clearing up”; (approximately 16 mg/mL AnxA1 in milliQ water, pH 6.1-4.2) “Gel-like”; (approximately 16 mg/mL AnxA1 in milliQ water, pH 6.8-6.3) “Milky, turbid”; (approximately 16 mg/mL AnxA1 in milliQ water, pH 7.1) “Fluffy particles”; (approximately 16 mg/mL AnxA1 in milliQ water, pH ≥7.4) “clear solution”. In addition, the “appearance of the solution” value (approximately 16 mg/mL AnxA1 in milliQ water, pH≤7.1>2.6) is on record as “unclear”. Besides, the appearance entry (assumed 5 mg/mL AnxA1 in Milli Q water, 0.9% NaCl (154 mM), adjusted to pH 2, 4, 6 and 8) was “opaque”.
